Tested on: influenza virus strain A/Kaw/86

COC(=O)[C@@]1(C)CCC[C@]2(C)c3cc(OC)ccc3C(=O)C[C@@H]12 [COMPOUND A]
plaque morphology of mutant A2: altered plaque morphology

Source: patent US6037348A (priority 1997, dated 2000)
